Calls of active or inactive are those of the source.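 The calls were made as follows: active = half-maximal concentration for the rise in caspase light signal at or below ten times the top tested dose; inconclusive = flat fit between 30% and 70% activity, or unreliable curve fit; inactive = the rest.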
test system: MEF A1-2A-BIM cells, caspase 3/7 luminescence, 3 h; assay: inducers of caspase signal in A1-dependent MEFs – cell-based, luminescence, retest, A1 inhibitor project, dose response (AID 2765)

Row | Structure (SMILES) | EC50
1 | N#CN=C1SCCS1 | > 35 µM (inactive)
2 | COc1ccc2[nH]c(=O)c(-c3nnn(-c4ccccc4)n3)cc2c1 | > 35 µM (inactive)
3 | CC(C)(C)C1CCc2onc(C(=O)Nc3cccc(O)c3)c2C1 (stereo unspecified) | > 35 µM (inactive)
4 | O=C(CS(=O)(=O)c1ccccc1)N(CCCN1CCOCC1)c1nc2c(F)cccc2s1 | > 35 µM (inactive)
5 | CCCNC(=O)c1ccc2c(=O)c(O)c(-c3ccsc3)[nH]c2c1 | > 35 µM (inactive)
6 | CCCc1cc(=O)oc2c(C)c(OCC(=O)Nc3ccc(CN4CCOCC4)cc3)ccc12 | > 35 µM (inactive)
7 | COc1ccc2c(c1)CCc1c(C(=O)Nc3cc(C)n(Cc4ccc(Cl)cc4)n3)noc1-2 | 15 µM
8 | O=C1/C(=C\c2c(NCCOCCO)nc3ccccn3c2=O)SC(=S)N1Cc1ccco1 | > 35 µM (inactive)
9 | CC(CC(=O)N1CCN(c2cccc(Cl)c2)CC1)S(=O)(=O)c1ccc2c(c1)NC(=O)CO2 (stereo unspecified) | > 35 µM (inactive)
10 | CSC[C@@H]1NC(=S)N(c2ccc(C)cc2)C1=O | > 35 µM (inactive)
11 | CCSc1nc(NCCN(C)C)c2c3c(sc2n1)COC(C)(CC)C3 (stereo unspecified) | > 35 µM (inactive)
12 | O=C1C(=O)N(Cc2ccco2)C(c2cccs2)/C1=C(\O)c1cccc([N+](=O)[O-])c1 (stereo unspecified) | > 35 µM (inactive)
13 | Cc1cc(C)c(C(=O)COC(=O)C2CCN(c3ccc(C(F)(F)F)cn3)CC2)cc1C | > 35 µM (inactive)
14 | O=C(CN(c1ccc(Br)cc1)S(=O)(=O)c1ccc(Cl)c([N+](=O)[O-])c1)NCCc1ccccc1 | > 35 µM (inactive)
15 | CN(c1ccc(OCC(=O)NC2CCC(O)CC2)cc1)S(=O)(=O)c1ccc(Cl)cc1 (stereo unspecified) | > 35 µM (inactive)
16 | O=c1c(O[C@@H]2O[C@H](CO)[C@@H](O)[C@H](O)[C@H]2O)c(-c2ccc(O)cc2)oc2cc(O)cc(O)c12 | > 35 µM (inactive)
17 | CC(C)CCN(C(=O)Cc1ccc(Cl)c(Cl)c1)c1c(N)n(Cc2ccccc2)c(=O)[nH]c1=O | 12 µM
18 | CC1CCc2c(sc3nc(C(C)(C)C)nc(N4CCN(C(=O)CCl)CC4)c23)C1 (stereo unspecified) | 15.4 µM
19 | CC(C)(C)c1ccc2c(c1)OC(C(=O)N/N=C\c1ccc[nH]1)CO2 (stereo unspecified) | > 35 µM (inactive)
20 | COCCCn1cc(C(=O)c2cc(OC)ccc2OCC(=O)N2CCCCC2C)cc(C#N)c1=O (stereo unspecified) | > 35 µM (inactive)
21 | COCc1cc(C)nc(SCC(=O)Nc2nc(C)cs2)c1C#N | > 35 µM (inactive)
22 | CC(=O)c1ccc(N2CCN(S(=O)(=O)c3c(C(=O)N4CCCC4)c(C)n(C)c3C)CC2)cc1 | > 35 µM (inactive)
23 | COc1ccc(S(=O)(=O)NC2CCCC2)cc1C(N)=O | > 35 µM (inactive)

Row | Structure (SMILES) | EC50
24 | Cc1cccc(NC(=O)CSc2nnc(CNC(=O)c3ccc(S(=O)(=O)N(C)C)cc3)n2-c2ccc(F)cc2)c1 | > 35 µM (inactive)
25 | O=C(NCC1CCCO1)C1CCN(S(=O)(=O)c2ccc(Br)cc2)CC1 (stereo unspecified) | > 35 µM (inactive)
26 | O=C(c1ccccc1Br)N(Cc1ccccc1)c1ccccc1 | > 35 µM (inactive)
27 | COc1ccc(NC(=O)CN2CCC(NC(=O)c3ccc(OC)cc3)CC2)cc1 | > 35 µM (inactive)
28 | CCCOC(=O)c1[nH]c2c(c1C)C(=O)CC(c1cccs1)C2 (stereo unspecified) | > 35 µM (inactive)
29 | CCN(CC)S(=O)(=O)c1cc(C(=O)Nc2ccccc2[N+](=O)[O-])ccc1Cl | > 35 µM (inactive)
30 | CCN(CC)S(=O)(=O)c1cc(NC(=O)C2Cc3ccccc3C(=O)O2)ccc1C (stereo unspecified) | > 35 µM (inactive)
31 | CCOc1ccc(-c2ccc(NS(=O)(=O)c3ccc([N+](=O)[O-])cc3)cc2)nn1 | > 35 µM (inactive)
32 | O=C(NC1CCCC1)c1cccc2c1C(=O)c1ccc(/C=C/c3ccccc3)cc1S2(=O)=O | 10.6 µM
33 | Cc1ccn(C(=O)c2ccc(NC(=O)C3CCCCC3)cc2)n1 | > 35 µM (inactive)
34 | Cn1c2ccccc2c2cnn(CC(=O)NCCCN3CCN(c4ccccc4F)CC3)c(=O)c21 | > 35 µM (inactive)
35 | O=C(O)COc1ccccc1C=NNc1ccc([N+](=O)[O-])cc1S(=O)(=O)Nc1ccc(Cl)cc1 | > 35 µM (inactive)
36 | CCCCc1ccc(NC(=O)CN(C)CC(=O)Nc2ccccc2Cl)cc1 | > 35 µM (inactive)
37 | CCNC(=O)/C(C#N)=C/c1c(N2CCN(C)CC2)nc2c(C)cccn2c1=O | > 35 µM (inactive)
38 | Cc1ccccc1Nc1nc(-c2sc(NC(=O)c3cccc(Cl)c3)nc2C)cs1 | > 35 µM (inactive)
39 | O=C(/C=C/c1ccccc1)Nc1cccnc1 | > 35 µM (inactive)
40 | O=C(CCCCCn1c(=O)[nH]c2ccsc2c1=O)N1CCN(C2CCCCC2)CC1 | > 35 µM (inactive)
41 | CCOC(=O)c1c(NC(=O)C2C3C=CC(C3)C2C(=O)O)sc2c1CCCC2 (stereo unspecified) | > 35 µM (inactive)
42 | c1ccc(-c2sc3ccccc3c2-c2ccc(OCCN3CCOCC3)cc2)cc1 | > 35 µM (inactive)
43 | COc1ccccc1CC(=O)N1CCOCC1 | > 35 µM (inactive)
44 | O=S1(=O)C=C(Sc2nc3ccccc3s2)c2ccccc21 | > 35 µM (inactive)
45 | Cc1ccc(CCC(=O)Nc2ccc(Br)cc2)o1 | > 35 µM (inactive)

Continued, values first:

Row | EC50 | Structure (SMILES)
46 | > 35 µM (inactive) | COc1ccc(NS(=O)(=O)c2cccc(C(=O)OCC(=O)c3c(N)n(C)c(=O)n(C)c3=O)c2)cc1
47 | > 35 µM (inactive) | NC(=O)c1ccc(NC(=O)CSc2nnc(C3CC3)n2C2CC2)cc1
48 | > 35 µM (inactive) | NC(=NCCCCCCN=C(N)/N=C(\N)Nc1ccc(Cl)cc1)/N=C(\N)Nc1ccc(Cl)cc1
49 | > 35 µM (inactive) | Nc1cccc(Oc2cnccn2)c1
50 | > 35 µM (inactive) | CCOC(=O)COc1ccc(S(=O)(=O)N2CCN(c3ccc(OC)cc3)CC2)cc1
51 | > 35 µM (inactive) | Brc1ccc(CN2CCN(Cc3c[nH]c4ccccc34)CC2)cc1
52 | > 35 µM (inactive) | COCCN(C(=O)CSc1nc2ccccc2c(=O)n1C(C)COC)c1c(N)n(Cc2ccccc2)c(=O)[nH]c1=O (stereo unspecified)
53 | 13.9 µM | Cc1[nH]nc2nc(SCC(=O)NCCC3=CCCCC3)n(-c3ccc(Br)cc3)c(=N)c12
54 | > 35 µM (inactive) | Nc1ccccc1SC(C[N+](=O)[O-])c1ccccc1 (stereo unspecified)
55 | > 35 µM (inactive) | COc1cc(C(=O)Nc2cc3c(cc2N2CCCCC2)n(C)c(=O)n3C)cc(OC)c1OC
56 | > 35 µM (inactive) | O=C1C2CCCN2C(c2cccc(Br)c2)N1c1ccc(F)cc1 (stereo unspecified)
57 | > 35 µM (inactive) | C[C@H](CO)N1C[C@H](C)[C@@H](CN(C)CC2CCCCC2)Oc2c(NS(=O)(=O)c3cccs3)cccc2C1=O
58 | > 35 µM (inactive) | O=C(NCc1ccccc1Br)c1cccc2c1C(=O)c1ccc(-c3ccc(OC(F)(F)F)cc3)cc1S2(=O)=O
59 | > 35 µM (inactive) | COc1ccc(NC(=O)c2oc3ccccc3c2NC(=O)C2CC2)cc1
60 | > 35 µM (inactive) | COc1cccc(/C=N/NC(=O)c2cc3cc([N+](=O)[O-])ccc3s2)c1O
61 | > 35 µM (inactive) | COc1cc(CN2CCc3ccccc3C2)ccc1O
62 | > 35 µM (inactive) | COc1ccccc1CNC(=O)COc1ccc([N+](=O)[O-])cc1
63 | 30.1 µM | COc1ccc2c(-c3cc4ccc(OCc5ccc(F)cc5)cc4oc3=O)cc(=O)oc2c1
64 | > 35 µM (inactive) | Cc1cc(Cl)ccc1OCC(=O)OCC(=O)c1c(N)n(C)c(=O)n(C)c1=O
65 | > 35 µM (inactive) | CCOC(=O)c1oc2ccccc2c1NC(=O)CN1CCN(C)CC1
66 | > 35 µM (inactive) | COc1ccc(OC[C@@H](O)CNC(=O)c2cccc3c2C(=O)c2ccc(-c4ccc(F)cc4OCc4ccccc4)cc2S3(=O)=O)cc1

From PubChem BioAssay AID2765 (Broad Institute, 2010)
